Reference: ChEMBL document CHEMBL1201862, “PubChem BioAssay data set” (2004)
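96-well plates; 48 h exposure; 5 concentrations. Endpoints by linear interpolation between flanking doses. Not reached: highest tested concentration assigned. GI50: concentration for 50% inhibition of growth.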 Active and inactive are the calls of the source. No stated cut-off is given here; in the data, active = GI50 up to about 1.1 µM and inactive = higher.

Legend:
Assay in all cases: inhibition of tumour cell growth, NCI panel, 48 h
[1] = test system: CAKI-1
[2] = test system: DU-145
[3] = test system: EKVX
[4] = test system: HCC 2998
[5] = test system: HOP-92
[6] = test system: HT-29
[7] = test system: K562
[8] = test system: NCI/ADR-RES
[9] = test system: OVCAR-4
[10] = test system: OVCAR-8
[11] = test system: PC-3
[12] = test system: RPMI-8226
[13] = test system: RXF 393
[14] = test system: SF-295
[15] = test system: SN12C
[16] = test system: SNB-75
[17] = test system: SR
[18] = test system: SW-620
[19] = test system: U-251
[20] = test system: UO-31

## CC(=O)Nc1ccc(-c2nc3ccccc3s2)cc1Cl
[1]
  GI50: 56.5 µM (inactive)
[2]
  GI50: 55.6 µM (inactive)
[3]
  GI50: 5.6 µM (inactive)
[4]
  GI50: 0.23 µM (active)
[5]
  GI50: 54.2 µM (inactive)
[6]
  GI50: > 95.5 µM (inactive)
[7]
  GI50: > 100 µM (inactive)
[8]
  GI50: > 86.9 µM (inactive)
[9]
  GI50: > 100 µM (inactive)
[10]
  GI50: 66.5 µM (inactive)
[11]
  GI50: > 100 µM (inactive)
[12]
  GI50: > 100 µM (inactive)
[13]
  GI50: 26.5 µM (inactive)
[14]
  GI50: 41.9 µM (inactive)
[15]
  GI50: > 100 µM (inactive)
[16]
  GI50: 36.7 µM (inactive)
[17]
  GI50: > 100 µM (inactive)
[18]
  GI50: > 100 µM (inactive)
[19]
  GI50: > 84.1 µM (inactive)
[20]
  GI50: 27.7 µM (inactive)

## CC(C)(C)C(=O)C(C#N)C(=O)C(C)(C)C
[1]
  GI50: > 100 µM (inactive)
[2]
  GI50: > 100 µM (inactive)
[3]
  GI50: > 100 µM (inactive)
[4]
  GI50: > 100 µM (inactive)
[5]
  GI50: > 100 µM (inactive)
[6]
  GI50: > 100 µM (inactive)
[7]
  GI50: > 100 µM (inactive)
[8]
  GI50: > 100 µM (inactive)
[9]
  GI50: > 100 µM (inactive)
[10]
  GI50: > 100 µM (inactive)
[11]
  GI50: > 100 µM (inactive)
[12]
  GI50: > 100 µM (inactive)
[13]
  GI50: > 100 µM (inactive)
[14]
  GI50: > 100 µM (inactive)
[15]
  GI50: > 100 µM (inactive)
[16]
  GI50: > 100 µM (inactive)
[17]
  GI50: 0.0697 µM (active)
[18]
  GI50: > 100 µM (inactive)
[19]
  GI50: > 100 µM (inactive)
[20]
  GI50: > 100 µM (inactive)

## COc1ccccc1CC(=O)C(O)(C(F)(F)F)C(F)(F)F
[1]
  GI50: > 100 µM (inactive)
[2]
  GI50: > 100 µM (inactive)
[3]
  GI50: > 100 µM (inactive)
[4]
  GI50: > 100 µM (inactive)
[5]
  GI50: > 100 µM (inactive)
[6]
  GI50: > 100 µM (inactive)
[7]
  GI50: > 100 µM (inactive)
[8]
  GI50: > 100 µM (inactive)
[9]
  GI50: > 100 µM (inactive)
[10]
  GI50: > 100 µM (inactive)
[11]
  GI50: > 100 µM (inactive)
[12]
  GI50: > 100 µM (inactive)
[13]
  GI50: > 100 µM (inactive)
[14]
  GI50: > 100 µM (inactive)
[15]
  GI50: > 100 µM (inactive)
[16]
  GI50: 12.7 µM (inactive)
[17]
  GI50: > 100 µM (inactive)
[18]
  GI50: > 100 µM (inactive)
[19]
  GI50: > 100 µM (inactive)
[20]
  GI50: > 100 µM (inactive)

## Cc1noc(C)c1/N=N/c1ccc2nonc2c1N
[1]
  GI50: > 100 µM (inactive)
[2]
  GI50: > 100 µM (inactive)
[3]
  GI50: 2.66 µM (inactive)
[4]
  GI50: > 100 µM (inactive)
[5]
  GI50: 87.7 µM (inactive)
[6]
  GI50: > 100 µM (inactive)
[7]
  GI50: > 10 µM (inactive)
[8]
  GI50: > 100 µM (inactive)
[9]
  GI50: > 100 µM (inactive)
[10]
  GI50: > 100 µM (inactive)
[11]
  GI50: > 100 µM (inactive)
[12]
  GI50: > 100 µM (inactive)
[13]
  GI50: > 100 µM (inactive)
[14]
  GI50: 67.3 µM (inactive)
[15]
  GI50: > 100 µM (inactive)
[16]
  GI50: 15.1 µM (inactive)
[17]
  GI50: > 100 µM (inactive)
[18]
  GI50: > 100 µM (inactive)
[20]
  GI50: 21 µM (inactive)

## C/C(=N/NC(=O)c1ccncc1)c1ccc(NC(=O)C(=O)Nn2c(S)nc3ccccc3c2=O)cc1
[1]
  GI50: > 100 µM (inactive)
[2]
  GI50: > 100 µM (inactive)
[3]
  GI50: 72.8 µM (inactive)
[4]
  GI50: > 100 µM (inactive)
[5]
  GI50: 59 µM (inactive)
[6]
  GI50: > 100 µM (inactive)
[8]
  GI50: > 100 µM (inactive)
[9]
  GI50: > 100 µM (inactive)
[10]
  GI50: > 100 µM (inactive)
[11]
  GI50: > 100 µM (inactive)
[12]
  GI50: > 100 µM (inactive)
[13]
  GI50: > 100 µM (inactive)
[14]
  GI50: > 100 µM (inactive)
[15]
  GI50: > 100 µM (inactive)
[16]
  GI50: > 100 µM (inactive)
[17]
  GI50: > 100 µM (inactive)
[18]
  GI50: > 100 µM (inactive)
[19]
  GI50: > 100 µM (inactive)
[20]
  GI50: > 100 µM (inactive)

## COc1ccc(/C(C)=C2\CCCN(Cc3ccccc3)C2)cc1
[1]
  GI50: 22.6 µM (inactive)
[2]
  GI50: 34.6 µM (inactive)
[3]
  GI50: 37.1 µM (inactive)
[4]
  GI50: 21 µM (inactive)
[5]
  GI50: 17.7 µM (inactive)
[6]
  GI50: 18.9 µM (inactive)
[7]
  GI50: 24 µM (inactive)
[8]
  GI50: 22.6 µM (inactive)
[9]
  GI50: 27.2 µM (inactive)
[10]
  GI50: 18.3 µM (inactive)
[11]
  GI50: 23 µM (inactive)
[12]
  GI50: 18.6 µM (inactive)
[13]
  GI50: 18.6 µM (inactive)
[14]
  GI50: 16.5 µM (inactive)
[16]
  GI50: 24.2 µM (inactive)
[17]
  GI50: 20.4 µM (inactive)
[18]
  GI50: 19.1 µM (inactive)
[19]
  GI50: 19.6 µM (inactive)
[20]
  GI50: 19.9 µM (inactive)

## CC(C)(C)OC(=O)NCCNC(=O)CN(CC(=O)O)C1CCCCC1N(CC(=O)O)CC(=O)O (stereo unspecified)
[1]
  GI50: > 100 µM (inactive)
[2]
  GI50: > 100 µM (inactive)
[4]
  GI50: > 100 µM (inactive)
[5]
  GI50: > 100 µM (inactive)
[6]
  GI50: > 100 µM (inactive)
[7]
  GI50: > 100 µM (inactive)
[8]
  GI50: > 100 µM (inactive)
[9]
  GI50: > 100 µM (inactive)
[10]
  GI50: > 100 µM (inactive)
[11]
  GI50: > 100 µM (inactive)
[12]
  GI50: > 100 µM (inactive)
[13]
  GI50: > 100 µM (inactive)
[14]
  GI50: > 100 µM (inactive)
[15]
  GI50: > 100 µM (inactive)
[16]
  GI50: > 100 µM (inactive)
[17]
  GI50: > 100 µM (inactive)
[18]
  GI50: > 100 µM (inactive)
[19]
  GI50: > 100 µM (inactive)
[20]
  GI50: > 100 µM (inactive)
